Patent publication US20260242390A1, “TOTAL SYNTHESES OF PORTIMINE A AND ANALOGUES THEREOF AS SMALL MOLECULE MODULATORS OF NMD3” (priority 2023, published 2026)
Entries after “also recorded” stand apart in the source; their conditions may differ. Where two headings read alike, the source gives them in different places.

Test system: Jurkat cells
Assay: Cell viability / toxicity in Jurkat cells
Type: cell-based, human
Settings: for IC50: Homo sapiens, read-out: IC50 to Jurkat cells; for cell toxicity in leukemia (Jurkat) cancer cell line: 36-hour treatment; for toxicity to Jurkat cells: pM-nM concentration range (0.23 pM to 1 uM), 12 hr
From the text: FIG. 1. Portimine A is non-toxic to primary human PBMCs. Portimine A and its functional analogs show stereo-selective acute toxicity in cancer cells. […] (B) Structure of portimine related analogs: phenyl-portimine A (Ph-PA, 36) and epi-portimine A (ePA, 38). Structure of fully functionalized portimine A-based epimeric probe pair: portimine A-diazirine-alkyne (PA-DA, 35-2) and epi-portimine A-diazirine-alkyne (ePA-DA, 35-1). (C) Cell viability analysis of portimine A and analogs. […] All presented data as mean of biological replicated experiments (n=3). […]
Structurally related negative control ePA and PB are non-toxic in all cell types in the current concentrate range. PBMCs (25k per well), Jurkat (10k per well). […]
• 1) Portimine A and its functional analogs show stereo-selective acute toxicity in cancer cells (FIG. 1). […] (B) Structure of portimine related analogs: phenyl-portimine A (Ph-PA, 36) and epi-portimine A (ePA, 38). Structure of fully functionalized portimine A-based epimeric probe pair: portimine A-diazirine-alkyne (PA-DA, 35-2) and epi-portimine A-diazirine-alkyne (ePA-DA, 35-1). (C) Cell viability analysis of portimine A and analogs. […] All presented data as mean of biological replicated experiments (n=3). […] Structurally related negative control ePA and PB are non-toxic in all cell types in the current concentrate range. PBMCs (25k per well), Jurkat (10k per well). […] Cell cycle analysis in Jurkat cells (FIG. 2). […] (A) PA and Ph-PA show less toxic to healthy PBMCs compared to Jurkat cells. […] (B) Immunoblot of caspase-3 in Jurkat and PBMCs with indicated conditions. […] (A) Pharmacokinetic studies of mouse intraperitoneal (i.p.) and oral (p.o.) administration for portimine (n=3). […] Impact of PA [0.3 or 1 mg/kg intraperitoneally] on MC38 tumor growth in WT mice (n=6). (C) Kaplan-Myer survival curve of WT MC38 tumor-bearing mice (n=6) after treatment with PA as described in (D). Mice were euthanized when tumor area exceeded 2000 mm^3. Statistical analysis was performed using ANOVA analysis followed by multiple comparisons test, * p≤0.05. Treatment condition: Jurkat (60 M per condition); PA-DA/ePA-DA concentration: 0.5 uM, PA or ePA: 5 uM; Incubate with probe with or without competitors (PA, ePA) for 30 min; UV irradiated for 20 min. (0.5 uM PA-DA add a no-UV condition), Standard pulldown & biotin-enrichment and western blot analysis (Elute condition: 2× sample buffer+500 uM biotin, boil for 20 mins); Primary antibody NMD3 (ProteinTech, 1:150), Actin (BioRad, 1:10000). […] Chemical proteomic profiling with PA-DA in Jurkat cells (A, B, C, G) and HCC1806 cells (D, E, F, H) show NMD3 is the primary target candidate of portimine A. […] (I, J) Confirmation of PA-DA engagement of NMD3 in Jurkat and HCC1806 cells. […] Treatment condition: Jurkat (5M per well). Portimine A concentration: 2 nM-1000 nM; In total treat cell for 12 hours. […] Protein degradation of p53, Mcl1, Bid, Bim, Noxa can be rescued by MG132 or Epoxomicin. (B) NMD3 mRNA increased after PA treatment, but not ePA control compound. […] (A) Immunoblot showing reduced NMD3 levels in shNMD3 Jurkat and HeLa cells. […] Data represents mean±SD of biologically replicated experiments (n=3). […] Cell lysates were fractionated by sucrose gradient (5-50%) and each fraction were analyzed by western blot. eIF6 levels increase in 60S subunit fraction and decrease in ribosome-free fractions after PA treatment. RPS6, a 40S and polysome subunits marker, is decreased in polysome fractions after PA treatment. Results are representative of three independent experiments. […] Relative protein levels in each fraction were normalized to the peak fraction of the indicated protein from the DMSO cells and plotted. Data represents mean±SD of biologically replicated experiments (n=3). Statistical analysis was performed using multiple unpaired Student t-test. * p≤0.05; ** p≤0.01; *** p≤0.005; **** p≤0.0001. […]

SMILES	IC50 (Jurkat, 12 h) [nM]	cell toxicity in leukemia (Jurkat) cancer cell line	toxicity to Jurkat cells	IC50 (after 12 hr, Jurkat 10k per well, 0.23 pM to 1 uM) [nM]
C=CC1=C[C@@H]2[C@@H]3O[C@]4(CC[C@H](O4)C(C)C[C@@H](O)C3=O)CC(O)C3=NCC[C@@]32CC1 (stereo partly drawn) [PA, portimine A]	~2			
C=CC1=C[C@@H]2[C@@H]3OC4(CC[C@H](O4)C(C)C[C@@H](O)C3=O)CC(=O)C3=NCC[C@@]32CC1 (stereo partly drawn) [PB, portimine B]		minimal effects	non-toxic; also recorded: non-toxicity	
CC1C[C@@H](O)C(=O)[C@H]2O[C@]3(CC[C@@H]1O3)CC(O)C1=NCC[C@@]13CCC(c1ccccc1)=C[C@H]23 (stereo partly drawn) [Ph-PA, phenyl-portimine A]				~2
C=CC1=C[C@@H]2[C@@H]3O[C@]4(CC[C@H](O4)C(C)C[C@@H](O)C3=O)C[C@@H](O)C3=NCC[C@@]32CC1 (stereo partly drawn) [ePA, epi-portimine A]		minimal effects	non-toxic; also recorded: non-toxicity	
